From US20170190705A1, “Compositions and Methods for Inhibiting BMP” (THE BRIGHAM AND WOMAN'S HOSPITAL, INC., priority 2014, published 2017) come the findings set out here.

For one assay, the target named is T1, MARK4 (Homo sapiens, UniProt Q96L34).
T1 sequence (Q96L34 1-752): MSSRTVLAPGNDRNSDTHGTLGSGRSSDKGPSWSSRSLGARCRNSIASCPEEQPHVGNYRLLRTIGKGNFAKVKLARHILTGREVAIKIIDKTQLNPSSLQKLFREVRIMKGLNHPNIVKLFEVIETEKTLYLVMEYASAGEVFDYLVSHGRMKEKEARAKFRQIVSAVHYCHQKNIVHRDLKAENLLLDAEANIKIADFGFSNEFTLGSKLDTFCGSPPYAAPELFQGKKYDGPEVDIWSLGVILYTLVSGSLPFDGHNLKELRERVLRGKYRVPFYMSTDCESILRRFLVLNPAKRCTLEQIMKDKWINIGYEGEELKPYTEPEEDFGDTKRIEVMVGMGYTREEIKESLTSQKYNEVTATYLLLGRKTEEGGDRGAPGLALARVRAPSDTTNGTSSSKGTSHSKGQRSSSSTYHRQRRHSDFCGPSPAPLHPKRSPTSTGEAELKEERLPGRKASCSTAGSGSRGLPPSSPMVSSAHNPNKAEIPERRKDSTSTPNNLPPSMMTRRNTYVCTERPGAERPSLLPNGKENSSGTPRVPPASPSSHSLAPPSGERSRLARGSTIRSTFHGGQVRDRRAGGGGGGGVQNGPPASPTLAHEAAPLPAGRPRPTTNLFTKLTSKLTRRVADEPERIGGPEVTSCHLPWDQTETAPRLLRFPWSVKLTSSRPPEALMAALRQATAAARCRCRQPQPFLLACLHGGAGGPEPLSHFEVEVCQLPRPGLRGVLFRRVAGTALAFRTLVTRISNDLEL
Put plainly: Kinome profiling MARK4. It is filed as biochemical. The conditions noted are these: read-out: Inhibitory activity MARK4; for inhibition at 0.1 µM: 100 nM. How it is done:
(§1) . The kinome-wide selectivity was determined following the methods previously reported by Mohedas et al., ACS Chem Biol 2013, 8, 1291-1302 and Sanvitale et al., PLoS One 2013, 8, e62721.

Another assay has as its target PDGFRβ (Homo sapiens, UniProt P09619). Put plainly: Kinome profiling PDGFRβ. The conditions noted are these: for inhibition at 0.1 µM: 100 nM. In kind it is biochemical. How it is done: as §1
A further assay deals with T2, PRKG1 (Homo sapiens, UniProt Q13976).
T2 sequence (Q13976 1-671): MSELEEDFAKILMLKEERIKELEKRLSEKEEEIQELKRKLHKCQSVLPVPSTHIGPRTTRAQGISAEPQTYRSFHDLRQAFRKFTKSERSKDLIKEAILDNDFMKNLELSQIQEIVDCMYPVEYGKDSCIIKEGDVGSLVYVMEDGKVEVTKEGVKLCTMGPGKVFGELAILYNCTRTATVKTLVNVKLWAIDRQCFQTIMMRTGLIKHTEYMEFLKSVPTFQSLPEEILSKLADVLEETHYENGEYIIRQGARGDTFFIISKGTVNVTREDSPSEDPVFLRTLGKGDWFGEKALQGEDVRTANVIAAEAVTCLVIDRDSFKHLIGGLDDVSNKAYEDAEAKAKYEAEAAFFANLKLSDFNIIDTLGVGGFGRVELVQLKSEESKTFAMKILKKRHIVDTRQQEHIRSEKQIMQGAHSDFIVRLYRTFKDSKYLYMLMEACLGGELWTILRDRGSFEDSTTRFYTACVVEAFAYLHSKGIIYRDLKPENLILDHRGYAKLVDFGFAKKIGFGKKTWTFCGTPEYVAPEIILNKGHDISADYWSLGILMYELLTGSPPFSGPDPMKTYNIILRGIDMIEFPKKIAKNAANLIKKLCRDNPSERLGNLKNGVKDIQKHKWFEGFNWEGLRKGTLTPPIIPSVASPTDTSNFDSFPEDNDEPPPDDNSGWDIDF
Put plainly: Kinome profiling PRKG1. The conditions noted are these: read-out: Inhibitory activity PRKG1; for inhibition at 0.1 µM: 100 nM. It is filed as biochemical. The protocol: as §1

A further assay concerns the target CK1-γ2 (Homo sapiens, UniProt P78368). Put plainly: Kinome profiling CK1-γ2. The conditions noted are these: read-out: Inhibitory activity CK1-γ2; for inhibition at 0.1 µM: 100 nM. In kind it is biochemical. How it is done: as §1
The next assay deals with T3, TSSK1 (Homo sapiens, UniProt Q9BXA7).
T3 sequence (Q9BXA7 1-367): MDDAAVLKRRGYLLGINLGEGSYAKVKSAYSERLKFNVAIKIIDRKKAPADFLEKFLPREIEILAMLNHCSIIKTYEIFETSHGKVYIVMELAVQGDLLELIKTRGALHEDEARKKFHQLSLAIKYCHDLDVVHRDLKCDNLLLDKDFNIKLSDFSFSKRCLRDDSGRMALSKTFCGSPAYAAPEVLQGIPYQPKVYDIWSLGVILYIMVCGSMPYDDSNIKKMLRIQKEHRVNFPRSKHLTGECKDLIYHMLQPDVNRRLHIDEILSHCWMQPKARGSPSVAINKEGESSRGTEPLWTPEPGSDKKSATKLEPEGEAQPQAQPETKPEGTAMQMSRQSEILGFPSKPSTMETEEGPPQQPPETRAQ
Put plainly: Kinome profiling TSSK1. The conditions noted are these: read-out: Inhibitory activity TSSK1; for inhibition at 0.1 µM: 100 nM. It is filed as biochemical. How it is done:
as §1

In a further assay the target is LOK (Homo sapiens, UniProt O94804). Nature of the assay: Kinome profiling LOK. It is filed as biochemical. The conditions noted are these: read-out: Inhibitory activity LOK; for inhibition at 0.1 µM: 100 nM. How it is done:
as §1

For a further assay, the target named is T4, caALK2 (Homo sapiens, UniProt Q04771, Q207D).
T4 construct: expressed in transfected cells; host or cells: C2C12 BRE-Luc cells infected with adenovirus (MOI 100)
Put plainly: Luciferase reporter assay constitutively active ALK2. In kind it is cell-based. The protocol: The cells were incubated for 1 h (37° C. and 10% CO2) and allowed to settle and attach. Compounds of interest or DMSO were diluted in DMEM and added at final compound concentrations of 1 nM to 10 μM. Cells were then incubated for 30 min. Adenovirus expressing constitutively active BMP and TGF-β type I receptors (Ad.caALK1-5), generously provided by Dr. Akiko Hata (University of to California at San Francisco), were added to achieve a multiplicity of infection (MOI) of 100. Plates were incubated overnight at 37° C. Cell viability was assayed with an MIT (3-(4,5-dimethylthiazol-2-yl)-2,5-diphenyl tetrazolium bromide) colorimetric assay (Promega) per the manufacturer's instructions. Media was discarded, and firefly luciferase activity was measured (Promega) according to manufacturer's protocol. Light output was measured using a Spectramax L luminometer (Molecular Devices) with an integration time of one second per well. Data was normalized to 100% of incremental BRE-Luc activity due to adenoviruses specifying caALK1, 2, or 3, or the incremental CAGA-Luc activity due to adenoviruses specifying caALK4 or 5.
In general terms: Reporter assays use an easily measured gene product as a stand-in for the process of interest.

Where [1] appears, read: read-out: Inhibitory activity PDGFRβ.
Setting [2] is: Table 4, read-out: Inhibitory Activity PDGFR-BETA.

Read-outs that look alike come from different tables or passages of the source.

CK1-γ2, sequence (P78368 whole entry): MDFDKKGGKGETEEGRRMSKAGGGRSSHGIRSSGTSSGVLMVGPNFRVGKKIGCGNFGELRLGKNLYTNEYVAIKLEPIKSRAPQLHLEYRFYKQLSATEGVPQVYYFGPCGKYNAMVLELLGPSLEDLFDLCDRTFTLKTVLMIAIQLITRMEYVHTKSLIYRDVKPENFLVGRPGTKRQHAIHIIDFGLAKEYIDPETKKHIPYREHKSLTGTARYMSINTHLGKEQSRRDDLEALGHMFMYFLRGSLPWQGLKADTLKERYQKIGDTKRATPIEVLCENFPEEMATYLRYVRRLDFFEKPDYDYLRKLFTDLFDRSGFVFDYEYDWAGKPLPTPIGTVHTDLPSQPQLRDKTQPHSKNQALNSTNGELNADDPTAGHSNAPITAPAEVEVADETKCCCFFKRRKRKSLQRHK
LOK, sequence (O94804 whole entry): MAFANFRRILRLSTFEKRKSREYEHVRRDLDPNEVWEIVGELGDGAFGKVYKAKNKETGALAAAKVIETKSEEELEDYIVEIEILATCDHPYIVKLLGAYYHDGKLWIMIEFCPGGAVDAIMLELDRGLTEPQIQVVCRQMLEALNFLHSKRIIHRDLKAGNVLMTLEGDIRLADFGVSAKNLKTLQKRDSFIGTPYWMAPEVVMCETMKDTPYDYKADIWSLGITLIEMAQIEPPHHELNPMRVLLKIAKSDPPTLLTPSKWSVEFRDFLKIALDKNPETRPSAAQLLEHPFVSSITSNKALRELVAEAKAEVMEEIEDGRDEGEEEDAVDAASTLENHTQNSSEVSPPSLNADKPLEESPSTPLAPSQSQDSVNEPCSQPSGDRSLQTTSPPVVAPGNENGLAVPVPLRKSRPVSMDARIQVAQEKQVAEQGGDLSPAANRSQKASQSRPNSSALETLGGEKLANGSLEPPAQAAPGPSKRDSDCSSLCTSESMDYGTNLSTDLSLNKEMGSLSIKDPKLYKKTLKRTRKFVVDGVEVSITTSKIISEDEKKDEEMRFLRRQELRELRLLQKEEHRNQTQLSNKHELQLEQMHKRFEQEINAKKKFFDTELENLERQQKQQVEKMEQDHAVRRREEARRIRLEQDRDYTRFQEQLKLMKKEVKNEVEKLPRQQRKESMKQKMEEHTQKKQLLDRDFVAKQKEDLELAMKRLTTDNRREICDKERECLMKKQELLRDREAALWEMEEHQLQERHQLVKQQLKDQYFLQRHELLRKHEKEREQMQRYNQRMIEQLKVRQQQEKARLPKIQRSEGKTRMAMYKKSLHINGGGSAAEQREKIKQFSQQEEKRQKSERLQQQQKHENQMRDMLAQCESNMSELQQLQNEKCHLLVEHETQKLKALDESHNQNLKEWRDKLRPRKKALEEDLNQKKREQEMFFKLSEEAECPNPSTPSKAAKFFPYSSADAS
PDGFRβ, sequence (P09619 33-1106): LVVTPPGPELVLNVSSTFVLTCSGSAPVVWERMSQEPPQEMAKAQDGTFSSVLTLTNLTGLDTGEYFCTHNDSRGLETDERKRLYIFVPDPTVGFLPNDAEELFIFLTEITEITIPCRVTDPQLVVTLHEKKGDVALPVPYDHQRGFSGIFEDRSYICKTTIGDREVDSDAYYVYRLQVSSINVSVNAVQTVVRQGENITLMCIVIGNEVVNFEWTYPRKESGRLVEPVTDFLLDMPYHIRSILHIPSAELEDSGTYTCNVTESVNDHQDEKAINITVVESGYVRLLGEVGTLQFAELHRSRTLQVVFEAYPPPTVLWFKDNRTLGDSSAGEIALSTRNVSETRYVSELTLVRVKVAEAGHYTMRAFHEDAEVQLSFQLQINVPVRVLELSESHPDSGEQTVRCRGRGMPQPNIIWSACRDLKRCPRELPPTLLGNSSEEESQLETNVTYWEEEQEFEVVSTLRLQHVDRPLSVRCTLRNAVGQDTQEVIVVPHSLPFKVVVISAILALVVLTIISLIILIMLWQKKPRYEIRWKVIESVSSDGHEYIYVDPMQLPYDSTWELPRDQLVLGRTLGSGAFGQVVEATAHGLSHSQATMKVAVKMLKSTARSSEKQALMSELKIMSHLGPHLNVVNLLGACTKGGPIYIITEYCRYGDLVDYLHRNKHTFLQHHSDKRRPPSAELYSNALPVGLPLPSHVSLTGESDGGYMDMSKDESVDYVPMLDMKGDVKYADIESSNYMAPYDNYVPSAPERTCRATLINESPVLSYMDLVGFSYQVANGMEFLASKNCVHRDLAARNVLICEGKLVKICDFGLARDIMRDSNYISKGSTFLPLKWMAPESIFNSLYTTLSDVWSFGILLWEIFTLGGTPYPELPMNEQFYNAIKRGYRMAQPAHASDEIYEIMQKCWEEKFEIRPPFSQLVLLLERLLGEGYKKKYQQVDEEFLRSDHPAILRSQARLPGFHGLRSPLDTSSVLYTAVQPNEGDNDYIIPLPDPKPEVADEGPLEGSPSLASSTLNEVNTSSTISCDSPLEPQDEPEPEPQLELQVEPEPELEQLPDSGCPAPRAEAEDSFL
T4 sequence (Q04771 21-509 Q207D): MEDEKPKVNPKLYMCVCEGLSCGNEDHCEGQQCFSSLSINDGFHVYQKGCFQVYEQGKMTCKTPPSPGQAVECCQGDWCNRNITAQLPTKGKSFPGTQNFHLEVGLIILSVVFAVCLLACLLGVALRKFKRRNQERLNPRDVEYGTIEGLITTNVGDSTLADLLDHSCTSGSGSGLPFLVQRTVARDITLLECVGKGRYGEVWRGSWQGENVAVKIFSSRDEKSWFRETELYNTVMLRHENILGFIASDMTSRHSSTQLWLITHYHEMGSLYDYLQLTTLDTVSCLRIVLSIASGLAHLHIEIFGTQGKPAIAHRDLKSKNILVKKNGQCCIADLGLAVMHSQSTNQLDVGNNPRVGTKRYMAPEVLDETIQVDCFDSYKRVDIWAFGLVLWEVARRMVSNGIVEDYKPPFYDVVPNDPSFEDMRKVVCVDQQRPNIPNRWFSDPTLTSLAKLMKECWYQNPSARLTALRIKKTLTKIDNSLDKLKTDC

Usually IC50 stands for the concentration at which inhibition is half-maximal. As to `COc1cc(-c2cc(-c3ccc(N4CCNCC4)cc3)cnc2N)cc(OC)c1OC` [Compound 15, 5-(4-(piperazin-1-yl)phenyl)-3-(3,4,5-trimethoxyphenyl)pyridin-2-amine], the inhibition at 0.1 µM was determined as 5% at MARK4; 47% on PDGFRβ (setting [1]); 0% on PRKG1; 3% on CK1-γ2; 1% at TSSK1; 32% on LOK. In addition, the inhibition at 1 µM turned out to be 40% at MARK4; 77% at PDGFRβ (setting [1]); 4% at PRKG1; 12% at CK1-γ2; 5% at TSSK1; 73% on LOK. Also, the IC50 on caALK2 (read-out: Cell Based Assay caALK2 IC50) was found to be 5 nM.
Take `COc1cc(-c2cc(-c3ccc(N4CCNCC4)cc3)cnc2C)cc(OC)c1OC` [Compound 10, 1-(4-(6-methyl-5-(3,4,5-trimethoxyphenyl)pyridin-3-yl)phenyl)piperazine]: the inhibition at 0.1 µM on MARK4 came out at 1%; on PDGFRβ (setting [2]), 17%; on PDGFRβ (setting [1]) it was 17%; on PRKG1 it was 3%; on CK1-γ2, 1%; at TSSK1, 2%. Further, the inhibition at 0.1 µM on LOK amounted to 9%. For the same compound, the inhibition at 1 µM on MARK4 was 2%; on PDGFRβ (setting [2]), 64%; at PDGFRβ (setting [1]), 64%; on PRKG1 it was 2%; on CK1-γ2 it was 4%; at TSSK1, 2%. The inhibition at 1 µM on LOK is 47%. Further, the potency result on caALK2 (comparison across multiple assays (Tables 6 and 7)) is on record as “reduction in potency”.
